In patent US7816353B2 (Exelixis, Inc., priority 2003, dated 2010):

Biological target: T1, p70S6K (Homo sapiens, UniProt P23443, T412E)
T1 construct: human p70S6 kinase domain residues 1-421, containing a T412E mutation; made in house
Experiment: p70S6 Kinase Assay (Luciferase-Coupled Chemiluminescent Kinase assay, LCCA)
Assay type: biochemical
Conditions: human p70S6 kinase domain residues 1-421, T412E; 5 μM ATP; read-out: p70S6K IC50
Summary of the method: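 Luciferase-coupled chemiluminescence measured percent ATP remaining after the 2 h kinase reaction at ambient temperature, with ATP near the kinase's KM. Ten inhibitor concentrations were tested. IC50 was obtained from a Hill-equation fit.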

T1 sequence (P23443 1-421 T412E): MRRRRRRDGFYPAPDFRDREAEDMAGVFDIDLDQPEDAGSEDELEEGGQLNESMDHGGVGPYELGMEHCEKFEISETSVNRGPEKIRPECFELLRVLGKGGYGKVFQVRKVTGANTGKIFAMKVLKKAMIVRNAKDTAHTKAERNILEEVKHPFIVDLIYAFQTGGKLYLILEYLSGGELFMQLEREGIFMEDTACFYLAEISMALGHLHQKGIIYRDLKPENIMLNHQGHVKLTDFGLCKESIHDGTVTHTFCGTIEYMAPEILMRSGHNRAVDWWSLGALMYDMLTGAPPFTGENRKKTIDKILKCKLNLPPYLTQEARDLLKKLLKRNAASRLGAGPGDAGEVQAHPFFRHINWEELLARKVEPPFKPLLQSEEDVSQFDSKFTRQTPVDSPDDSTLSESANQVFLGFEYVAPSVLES

SMILES	IC50
CSc1nc(NC(C)=O)nc(N(C(C)=O)[C@@H](CCCNC(C)=O)C(=O)Nc2cccc(C(F)(F)F)c2)c1C#N [Example 166, N~2~,N~5~-diacetyl-N~2~-[2-(acetylamino)-5-cyano-6-(methylthio)pyrimidin-4-yl]-N-[3-(trifluoromethyl)phenyl]-L-ornithinamide]	> 2 µM
COc1nc(N)nc(N(C)[C@@H](C)C(=O)Nc2cccc(Br)c2)c1C#N [Example 181, N~2~-[2-amino-5-cyano-6-(methyloxy)pyrimidin-4-yl]-N-(3-bromophenyl)-N~2~-methyl-L-alaninamide]	> 2 µM
CSc1nc(N)nc(N(C)N(C)C(=O)Nc2cccc(C(F)(F)F)c2)c1C#N [Example 93, 2-[2-amino-5-cyano-6-(methylthio)pyrimidin-4-yl]-1,2-dimethyl-N-[3-(trifluoromethyl)phenyl]hydrazinecarboxamide]	> 2 µM
CSc1nc(N)nc(NC(C)(C)C(=O)Nc2cccc(C(F)(F)F)c2)c1C#N [Example 81, N^2-[2-amino-5-cyano-6-(methylthio)pyrimidin-4-yl]-2-methyl-N-[3-(trifluoromethyl)phenyl]alaninamide]	> 2 µM
CSc1nc(N)nc(N(CCN(C)C)CC(=O)Nc2cccc(C(F)(F)F)c2)c1C#N [Example 87, N^2-[2-amino-5-cyano-6-(methylthio)pyrimidin-4-yl]-N^2-[2-(dimethylamino)ethyl]-N-[3-(trifluoromethyl)phenyl]glycinamide]	> 2 µM
CSc1nc(N)nc(N(C)CC(=O)Nc2cccc(C(C)C)c2)c1C#N [Example 110, N^2-[2-amino-5-cyano-6-(methylthio)pyrimidin-4-yl]-N^2-methyl-N-[3-(1-methylethyl)phenyl]glycinamide]	> 2 µM
CSc1nc(N)nc(SCc2nc3ccc(C(F)(F)F)cc3[nH]2)c1C#N [Example 63, 2-amino-4-(methylthio)-6-({[6-(trifluoromethyl)-1H-benzimidazol-2-yl]methyl}thio)pyrimidine-5-carbonitrile]	0.5 to 2 µM
CCOc1nc(N)nc(N[C@@H](C)C(=O)Nc2cc(C(=O)N3CCN(C)CC3)cc(C(F)(F)F)c2)c1C#N [Example 157, N~2~-[2-amino-5-cyano-6-(ethyloxy)pyrimidin-4-yl]-N-[3-[(4-methylpiperazin-1-yl)carbonyl]-5-(trifluoromethyl)phenyl]-L-alaninamide]	> 2 µM
CSc1nc(N)nc(N2CCC[C@H]2C(=O)Nc2cccc(C(F)(F)F)c2)c1C#N [Example 67, (S)-1-[2-amino-5-cyano-6-(methythio)pyrimidin-4-yl]-N-[3-(trifluoromethyl)phenyl]prolinamide]	0.5 to 2 µM
CSc1nc(N)nc(OC2(C(=O)Nc3cccc(C(F)(F)F)c3)CC2)c1C#N [Example 69, 1-{[2-amino-5-cyano-6-(methylthio)pyrimidin-4-yl]oxy}-N-[3-(trifluoromethyl)phenyl]cyclopropanecarboxamide]	0.5 to 2 µM
CSc1nc(N)nc(N(C)CC(=O)Nc2cccc(C)c2)c1C#N [Example 109, N^2-[2-amino-5-cyano-6-(methylthio)pyrimidin-4-yl]-N^2-methyl-N-(3-methylphenyl)glycinamide]	> 2 µM
COC(=O)c1cc(NC(=O)[C@H](C)Nc2nc(N)nc(OC)c2C#N)cc(C(F)(F)F)c1 [Example 189, methyl 3-({N-[2-amino-5-cyano-6-(methyloxy)pyrimidin-4-yl]-L-alanyl}amino)-5-(trifluoromethyl)benzoate]	> 2 µM
COc1nc(N)nc(N[C@@H](C)C(=O)Nc2cc(C(=O)NCCN(C)C)cc(C(F)(F)F)c2)c1C#N [Example 190, 3-({N-[2-amino-5-cyano-6-(methyloxy)pyrimidin-4-yl]-L-alanyl}amino)-N-[2-(dimethylamino)ethyl]-5-(trifluoromethyl)benzamide]	> 2 µM
C[C@H](Nc1nc(N)nc(N[C@@H](C)C(=O)Nc2cccc(C(F)(F)F)c2)c1C#N)C(=O)Nc1cccc(C(F)(F)F)c1 [Example 108, 2-{2-amino-5-cyano-6[1-(3-trifluoromethyl-phenylcarbamoyl)-1S-ethylamino]-pyrimidin-4-ylamino}N-(3-trifluoromethyl-phenyl)-2S-propionamide]	> 2 µM

More lines, now with the values ahead:

IC50	SMILES
> 2 µM	CSc1nc(N)nc(N[C@@H](CCCCN)C(=O)Nc2cccc(C(F)(F)F)c2)c1C#N [Example 114, N^2-[2-amino-5-cyano-6-(methylthio)pyrimidin-4-yl]-N-[3-(trifluoromethyl)phenyl]-L-lysinamide]
0.5 to 2 µM	COCCNCCC[C@H](Nc1nc(N)nc(SC)c1C#N)C(=O)Nc1cccc(C(F)(F)F)c1 [Example 144, N~2~-[2-amino-5-cyano-6-(methylthio)pyrimidin-4-yl]-N~5~-[2-(methyloxy)ethyl]-N-[3-(trifluoromethyl)phenyl]-L-omithinamide]
> 2 µM	COc1nc(N)nc(N[C@@H](CCCNC(=O)OC(C)(C)C)C(=O)Nc2cccc(C(F)(F)F)c2)c1C#N [Example 185, 1,1-dimethylethyl ((4S)-4-{[2-amino-5-cyano-6-(methyloxy)pyrimidin-4-yl]amino}-5-oxo-5-{[3-(trifluoromethyl)phenyl]amino}pentyl)carbamate]
0.05 to 0.5 µM	CSc1nc(N)nc(N[C@@H](CCC(N)=O)C(=O)Nc2cccc(C(F)(F)F)c2)c1C#N [Example 139]
> 2 µM	C[C@H](Nc1nc(N)nc(OCCN(C)C)c1C#N)C(=O)Nc1cccc(C(F)(F)F)c1 [Example 102, N^2-(2-amino-5-cyano-6-{[2-(dimethylamino)ethyl]oxy}pyrimidin-4-yl)-N-[3-(trifluoromethyl)phenyl]-L-alaninamide]
> 2 µM	COCCN(CCC[C@H](Nc1nc(N)nc(SC)c1C#N)C(=O)Nc1cccc(C(F)(F)F)c1)CCOC [Example 184, N~2~-[2-amino-5-cyano-6-(methylthio)pyrimidin-4-yl]-N~5~,N~5~-bis[2-(methyloxy)ethyl]-N-[3-(trifluoromethyl)phenyl]-L-ornithinamide]
> 2 µM	CCOc1nc(N)nc(N[C@@H](CCC(=O)O)C(=O)Nc2cccc(C(F)(F)F)c2)c1C#N [Example 173, N~2~-[2-amino-5-cyano-6-(ethyloxy)pyrimidin-4-yl]-N-[3-(trifluoromethyl)phenyl]-L-alpha-glutamine]
> 2 µM	CC(C)Oc1nc(N)nc(N[C@@H](C)C(=O)Nc2cccc(C(F)(F)F)c2)c1C#N [Example 122, N^2-{2-amino-5-cyano-6-[(1-methylethyl)oxy]pyrimidin-4-yl}-N-[3-(trifluoromethyl)phenyl]-L-alaninamide]
> 2 µM	CCOc1nc(N)nc(N[C@@H](C)C(=O)Nc2cc(OCCN(C)C)cc(C(F)(F)F)c2)c1C#N [Example 180, N~2~-[2-amino-5-cyano-6-(ethyloxy)pyrimidin-4-yl]-N-[3-{[2-(dimethylamino)ethyl]oxy}-5-(trifluoromethyl)phenyl]-L-alaninamide]
> 2 µM	CCOc1nc(N)nc(N[C@@H](Cc2ccc(O)cc2)C(=O)Nc2cccc(C(F)(F)F)c2)c1C#N [Example 154, Nalpha-[2-amino-5-cyano-6-(ethyloxy)pyrimidin-4-yl]-N-[3-(trifluoromethyl)phenyl]-L-tyrosinamide]
> 2 µM	CCCOc1nc(N)nc(N(C)[C@@H](C)C(=O)Nc2cccc(C(F)(F)F)c2)c1C#N [Example 120, N^2-[2-amino-5-cyano-6-(propyloxy)pyrimidin-4-yl]-N^2-methyl-N-[3-(trifluoromethyl)phenyl]-L-alaninamide]
> 2 µM	CCOc1nc(N)nc(N[C@@H](CN(C)C)C(=O)Nc2cccc(C(F)(F)F)c2)c1C#N [Example 176, N~2~-[2-amino-5-cyano-6-(ethyloxy)pyrimidin-4-yl]-3-(dimethylamino)-N-[3-(trifluoromethyl)phenyl]-L-alaninamide]
> 2 µM	CSc1nc(N)nc(N[C@@H](COCc2ccccc2)C(=O)Nc2cccc(C(F)(F)F)c2)c1C#N [Example 183, N~2~-[2-amino-5-cyano-6-(methylthio)pyrimidin-4-yl]-O-(phenylmethyl)-N-[3-(trifluoromethyl)phenyl]-L-serinamide]
> 2 µM	COc1nc(N)nc(N[C@@H](CN(C)C)C(=O)Nc2cccc(C(F)(F)F)c2)c1C#N [Example 178, N~2~-[2-amino-5-cyano-6-(methyloxy)pyrimidin-4-yl]-3-(dimethylamino)-N-[3-(trifluoromethyl)phenyl]-L-alaninamide]
> 2 µM	CSc1nc(N)nc(N[C@@H](CCCCN(C)C)C(=O)Nc2cccc(C(F)(F)F)c2)c1C#N [Example 171, N~2~-[2-amino-5-cyano-6-(methylthio)pyrimidin-4-yl]-N~6~,N~6~-dimethyl-N-[3-(trifluoromethyl)phenyl]-L-lysinamide]
> 2 µM	CSc1nc(N)nc(N[C@@H](CCCN/C(N)=N/[N+](=O)[O-])C(=O)Nc2cccc(C(F)(F)F)c2)c1C#N [Example 111, N^2-[2-amino-5-cyano-6-(methylthio)pyrimidin-4-yl]-N^5-[imino(nitroamino)methyl]-N-[3-(trifluoromethyl)phenyl]-L-omithinamide]
> 2 µM	CCOc1nc(N)nc(N(C)[C@@H](C)C(=O)Nc2cccc(C(F)(F)F)c2)c1C#N [Example 121, N^2-[2-amino-5-cyano-6-(ethyloxy)pyrimidin-4-yl]-N^2-methyl-N-[3-(trifluoromethyl)phenyl]-L-alaninamide]
0.5 to 2 µM	CNc1nc(N)nc(SCC(=O)Nc2cccc(C(F)(F)F)c2)c1C#N [Example 61, 2-{[2-amino-5-cyano-6-(methylamino)pyrimidin-4-yl]thio}-N-[3-(trifluoromethyl)phenyl]acetamide]

Same assay, conditions: p70S6K IC50, human p70S6 kinase domain residues 1-421, T412E; 5 μM ATP

SMILES	IC50
CSc1nc(N)nc(O[C@H](C)C(=O)Nc2cccc(C(F)(F)F)c2)c1C#N [Example 68, (2R)-2-{[2-amino-5-cyano-6-(methylthio)pyrimidin-4-yl]oxy}-N-[3-(trifluoromethyl)phenyl]propanamide]	0.5 to 2 µM
